Our source for the IC50 values is ChEMBL document CHEMBL1123698, “alpha-Methylproline-containing renin inhibitory peptides: in vivo evaluation in an anesthetized, ganglion-blocked, hog renin infused rat model” (J Med Chem, 1987).

One assay concerns the target T1, Renin (Homo sapiens, UniProt P00797).
T1 sequence (P00797 whole entry): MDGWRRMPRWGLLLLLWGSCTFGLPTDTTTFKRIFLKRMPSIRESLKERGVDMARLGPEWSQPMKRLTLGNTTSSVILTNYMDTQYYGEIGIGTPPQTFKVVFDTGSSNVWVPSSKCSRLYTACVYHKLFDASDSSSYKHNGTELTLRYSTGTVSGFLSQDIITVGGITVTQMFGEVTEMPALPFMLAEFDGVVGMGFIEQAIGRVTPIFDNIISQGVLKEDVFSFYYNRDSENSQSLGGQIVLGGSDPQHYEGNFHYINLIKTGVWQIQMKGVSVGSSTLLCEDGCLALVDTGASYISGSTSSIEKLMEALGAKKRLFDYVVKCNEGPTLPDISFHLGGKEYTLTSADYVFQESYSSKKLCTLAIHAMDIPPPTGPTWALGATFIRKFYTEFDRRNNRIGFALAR
Nature of the assay: In vitro inhibition against human plasma renin. The format is cell-free.

The next assay concerns the target Renin (Sus scrofa). Nature of the assay: In vitro inhibition against hog renin.

Square brackets hold non-standard residues; d marks the D form. Peptide text beside a SMILES is read from it. * marks the point of attachment. Sta = CC(C)C[C@H](N)[C@@H](O)CC(=O)O; NHCH2(2-pyridyl) = c1ccc(CN*)nc1; αMeP = C[C@@]1(C(=O)O)CCCN1; Boc = CC(C)(C)OC(=O)*

As to `CC[C@H](C)[C@H](NC(=O)[C@@H](NC[C@H](CC(C)C)NC(=O)[C@H](Cc1c[nH]cn1)NC(=O)[C@H](Cc1ccccc1)NC(=O)[C@]1(C)CCCN1C(=O)OC(C)(C)C)C(C)C)C(=O)NCc1ccccn1`, half-maximal inhibition against Renin (IC50) required 43 nM.

Take `CC[C@H](C)[C@H](NC(=O)C[C@H](O)[C@H](CC(C)C)NC(=O)[C@H](Cc1ccccc1)NC(=O)[C@H](Cc1ccccc1)NC(=O)[C@]1(C)CCCN1C(=O)OC(C)(C)C)C(=O)NCc1ccccn1` (Boc-[αMeP]FF[Sta]I-{NHCH2(2-pyridyl)}): the IC50 (usually the midpoint of a concentration-inhibition curve) on Renin is 36 nM.

As to `CC[C@H](C)[C@H](NC(=O)C[C@H](O)[C@H](CC(C)C)NC(=O)[C@H](Cc1c[nH]cn1)NC(=O)[C@H](Cc1ccccc1)NC(=O)[C@]1(C)CCCN1C(=O)OC(C)(C)C)C(=O)NCc1ccccn1` (Boc-[αMeP]FH[Sta]I-{NHCH2(2-pyridyl)}), the IC50 at Renin turned out to be 3.5 nM.

Turning to `CC[C@H](C)[C@H](NC(=O)[C@@H](NC[C@H](O)[C@H](CC(C)C)NC(=O)[C@H](Cc1c[nH]cn1)N(C)C(=O)[C@H](Cc1ccccc1)NC(=O)[C@@H]1CCCN1C(=O)OC(C)(C)C)C(C)C)C(=O)NCc1ccccn1`, at Renin (Sus scrofa), the half-inhibitory concentration (IC50) came out at 40 nM.
